Assay results published in ChEMBL document CHEMBL1201862, “PubChem BioAssay data set” (2004).
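Exposure lasted 48 hours, with cells grown in 96-well plates and compounds tested at five concentrations. Abbreviation: GI50, concentration required for 50% inhibition of growth.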 Active and inactive are the calls of the source. No stated cut-off is given here; in the data, active = GI50 up to about 1.1 µM and inactive = higher.

Experiments:
Test in all cases: NCI-60 cell line screen, 48 h
[1] = system: BT-549
[2] = system: CAKI-1
[3] = system: HCT-116
[4] = system: HL-60
[5] = system: IGROV-1
[6] = system: KM12
[7] = system: MDA-MB-231
[8] = system: MDA-MB-435
[9] = system: NCI-H522
[10] = system: OVCAR-3
[11] = system: PC-3
[12] = system: SF-268
[13] = system: SK-MEL-2
[14] = system: SK-OV-3
[15] = system: SNB-75
[16] = system: T47D
[17] = system: TK-10
[18] = system: UACC-62
[19] = system: EKVX

Row | SMILES | GI50 [1] | GI50 [2] | GI50 [3] | GI50 [4] | GI50 [5] | GI50 [6] | GI50 [7] | GI50 [8] | GI50 [9] | GI50 [10] | GI50 [11] | GI50 [12] | GI50 [13] | GI50 [14] | GI50 [15] | GI50 [16] | GI50 [17] | GI50 [18] | GI50 [19]
1 | CCNC(=S)NNC(=O)C12CC3CC(CC(C3)C1)C2 | > 100 µM (inactive) | > 100 µM (inactive) | > 100 µM (inactive) | > 100 µM (inactive) | > 100 µM (inactive) | > 100 µM (inactive) | > 100 µM (inactive) | > 100 µM (inactive) | > 100 µM (inactive) | > 100 µM (inactive) | > 100 µM (inactive) | > 100 µM (inactive) | > 100 µM (inactive) | > 100 µM (inactive) | 64.1 µM (inactive) | > 100 µM (inactive) | > 100 µM (inactive) | > 100 µM (inactive) | 
2 | COc1ccc(C2c3cc4c(cc3OC(NNS(=O)(=O)c3ccc(C)cc3)C2C)OCO4)cc1 (stereo not drawn) | 53.5 µM (inactive) | 65.9 µM (inactive) | 45.9 µM (inactive) | 21.6 µM (inactive) | 57.1 µM (inactive) | 65.9 µM (inactive) | > 100 µM (inactive) | 54.6 µM (inactive) | 11.8 µM (inactive) | 80.7 µM (inactive) | 21 µM (inactive) | > 100 µM (inactive) | 59.7 µM (inactive) | > 100 µM (inactive) | 37.4 µM (inactive) | 54.2 µM (inactive) | > 100 µM (inactive) | 71.6 µM (inactive) | 
3 | COc1ccc2c(c1)CC[C@@H]1C2CC[C@]2(C)C(=O)N(CCN(C)C)C(=O)CC12 (stereo partly drawn) | > 100 µM (inactive) | > 100 µM (inactive) | > 100 µM (inactive) | > 100 µM (inactive) | > 100 µM (inactive) | > 100 µM (inactive) | > 100 µM (inactive) | > 100 µM (inactive) | > 100 µM (inactive) | > 100 µM (inactive) | > 100 µM (inactive) | > 100 µM (inactive) |  | > 100 µM (inactive) | > 100 µM (inactive) | > 100 µM (inactive) | > 100 µM (inactive) | > 100 µM (inactive) | > 100 µM (inactive)
4 | CC(=O)Oc1ccc2c(c1)O/C(=C\c1ccc(O)cc1)C2=O | > 100 µM (inactive) | > 100 µM (inactive) | > 100 µM (inactive) | > 100 µM (inactive) | > 100 µM (inactive) | > 100 µM (inactive) | > 100 µM (inactive) | > 100 µM (inactive) | 28.4 µM (inactive) | > 100 µM (inactive) | > 100 µM (inactive) | > 100 µM (inactive) |  | > 100 µM (inactive) | > 100 µM (inactive) | > 100 µM (inactive) | > 100 µM (inactive) | > 100 µM (inactive) | > 100 µM (inactive)
5 | O=C(CCc1cc(O)ccc1O)OCCc1ccccc1 | 11.5 µM (inactive) | 7.66 µM (inactive) | 13 µM (inactive) | 0.718 µM (active) | 12.7 µM (inactive) | 8.53 µM (inactive) | 15.6 µM (inactive) | 10.4 µM (inactive) | 0.28 µM (active) |  | 4.91 µM (inactive) | 5.64 µM (inactive) | 18.7 µM (inactive) | > 100 µM (inactive) | > 64.1 µM (inactive) | 16.4 µM (inactive) | 14.7 µM (inactive) | 12.4 µM (inactive) | 16.6 µM (inactive)
6 | COC1C=COC2(C)Oc3c(C)c(O)c4c(O)c(c(C5SCCS5)c(O)c4c3C2=O)NC(=O)C(C)=C/C=C\C(C)C2OC(C)(C)OC(C2C)C(C)C(OC(C)=O)C1C (stereo not drawn) | 3.73 µM (inactive) | 6.12 µM (inactive) | 5.05 µM (inactive) | 5.53 µM (inactive) | 6.56 µM (inactive) | 6.04 µM (inactive) | 13.6 µM (inactive) | 4.79 µM (inactive) | 5.02 µM (inactive) | 4.78 µM (inactive) | 5.31 µM (inactive) | 7.33 µM (inactive) | 5.79 µM (inactive) | 17.1 µM (inactive) | 42.3 µM (inactive) | 70.6 µM (inactive) | 6.41 µM (inactive) | 4.02 µM (inactive) | 
